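A five-concentration, 48-hour dose response in 96-well plates underlies each endpoint, interpolated linearly between surrounding concentrations. GI50 = concentration required for 50% inhibition of growth. TGI marks complete inhibition of growth.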
Tests used:
Assay in all cases: inhibition of tumour cell growth, NCI panel, 48 h
[1] = test system: MDA-MB-435
[2] = test system: SK-OV-3 ovarian
[3] = test system: OVCAR-4 ovarian
[4] = test system: TK-10 renal
[5] = test system: NCI-H23 lung
[6] = test system: SK-MEL-2 melanoma
[7] = test system: HT29 colon
[8] = test system: MALME-3M melanoma
[9] = test system: HCT-116 colon
[10] = test system: OVCAR-3 ovarian
[11] = test system: SF-539 CNS
[12] = test system: M14 melanoma
[13] = test system: MCF7 breast
[14] = test system: DU-145 prostate
[15] = test system: HOP-62 NSCLC
[16] = test system: SK-MEL-5 melanoma
[17] = test system: K-562 leukemia
[18] = test system: T-47D breast
[19] = test system: UACC-62 melanoma
[20] = test system: UACC-257 melanoma
[21] = test system: NCI/ADR-RES ovarian
[22] = test system: KM12 colon
[23] = test system: U251 CNS
[24] = test system: HL-60(TB) leukemia
[25] = test system: HCT-15 colon
[26] = test system: MOLT-4 leukemia
[27] = test system: SF-268 CNS
[28] = test system: CAKI-1 renal
[29] = test system: CCRF-CEM leukemia
[30] = test system: IGROV1 ovarian
[31] = test system: NCI-H522 lung
[32] = test system: HS 578T breast
[33] = test system: UO-31 renal
[34] = test system: MDA-MB-231 breast
[35] = test system: OVCAR-5 ovarian
[36] = test system: EKVX NSCLC
[37] = test system: COLO 205 colon
[38] = test system: A498 renal
[39] = test system: NCI-H460 lung
[40] = test system: BT-549 breast
[41] = test system: SW-620 colon
[42] = test system: SK-MEL-28 melanoma
[43] = test system: SR leukemia
[44] = test system: PC-3 prostate
[45] = test system: NCI-H226 lung
[46] = test system: A549 NSCLC
[47] = test system: SF-295 CNS
[48] = test system: RXF 393 renal
[49] = test system: 786-0 renal
[50] = test system: RPMI-8226 leukemia
[51] = test system: ACHN renal
[52] = test system: SNB-19 CNS
[53] = test system: SNB-75 CNS
[54] = test system: OVCAR-8 ovarian
[55] = test system: LOX IMVI melanoma

With Cc1ccc(/C(=N/NS(=O)(=O)c2ccc([N+](=O)[O-])cc2)Sc2cc(Cl)c(C)cc2S(N)(=O)=O)cc1 the GI50 [1] was greater than 100 µM, the TGI [1] was greater than 100 µM and the GI50 [2] was greater than 100 µM. For the same compound, the TGI [2] was greater than 100 µM, the GI50 [3] was greater than 100 µM and the TGI [3] was greater than 100 µM. It also gave a GI50 [4] greater than 100 µM, a TGI [4] greater than 100 µM and a GI50 [5] greater than 100 µM. For the same compound, the TGI [5] was greater than 100 µM, the GI50 [6] was greater than 100 µM and the TGI [6] was greater than 100 µM. For the same compound, the GI50 [7] was greater than 100 µM, the TGI [7] was greater than 100 µM and the GI50 [8] was 11.9 µM. It also gave a TGI [8] greater than 100 µM, a GI50 [9] greater than 100 µM and a TGI [9] greater than 100 µM. It also gave a GI50 [10] greater than 100 µM, a TGI [10] greater than 100 µM and a GI50 [11] greater than 100 µM. For the same compound, the TGI [11] was greater than 100 µM, the GI50 [12] was greater than 100 µM and the TGI [12] was greater than 100 µM. It also gave a GI50 [13] greater than 100 µM, a TGI [13] greater than 100 µM and a GI50 [14] greater than 100 µM. The TGI [14] was greater than 100 µM, the GI50 [15] was greater than 100 µM and the TGI [15] was greater than 100 µM. It also gave a GI50 [16] greater than 100 µM, a TGI [16] greater than 100 µM and a GI50 [17] greater than 100 µM. The TGI [17] was greater than 100 µM, the GI50 [18] was greater than 100 µM and the TGI [18] was greater than 100 µM. The GI50 [19] was greater than 100 µM, the TGI [19] was greater than 100 µM and the GI50 [20] was greater than 100 µM. It also gave a TGI [20] greater than 100 µM, a GI50 [21] greater than 100 µM and a TGI [21] greater than 100 µM. For the same compound, the GI50 [22] was greater than 100 µM, the TGI [22] was greater than 100 µM and the GI50 [23] was greater than 100 µM. For the same compound, the TGI [23] was greater than 100 µM, the GI50 [24] was greater than 100 µM and the TGI [24] was greater than 100 µM. For the same compound, the GI50 [25] was greater than 100 µM, the TGI [25] was greater than 100 µM and the GI50 [26] was greater than 100 µM. The TGI [26] was greater than 100 µM, the GI50 [27] was greater than 100 µM and the TGI [27] was greater than 100 µM. It also gave a GI50 [28] greater than 100 µM, a TGI [28] greater than 100 µM and a GI50 [29] greater than 100 µM. It also gave a TGI [29] greater than 100 µM, a GI50 [30] greater than 100 µM and a TGI [30] greater than 100 µM. For the same compound, the GI50 [31] was greater than 100 µM, the TGI [31] was greater than 100 µM and the GI50 [32] was greater than 100 µM. For the same compound, the TGI [32] was greater than 100 µM, the GI50 [33] was greater than 100 µM and the TGI [33] was greater than 100 µM. For the same compound, the GI50 [34] was 27.3 µM, the TGI [34] was greater than 100 µM and the GI50 [35] was greater than 100 µM. For the same compound, the TGI [35] was greater than 100 µM, the GI50 [36] was greater than 100 µM and the TGI [36] was greater than 100 µM. It also gave a GI50 [37] greater than 100 µM, a TGI [37] greater than 100 µM and a GI50 [38] greater than 100 µM. It also gave a TGI [38] greater than 100 µM, a GI50 [39] greater than 100 µM and a TGI [39] greater than 100 µM. The GI50 [40] was greater than 100 µM, the TGI [40] was greater than 100 µM and the GI50 [41] was greater than 100 µM. For the same compound, the TGI [41] was greater than 100 µM, the GI50 [42] was greater than 100 µM and the TGI [42] was greater than 100 µM. The GI50 [43] was greater than 100 µM, the TGI [43] was greater than 100 µM and the GI50 [44] was 12.5 µM. The TGI [44] was greater than 100 µM, the GI50 [45] was greater than 100 µM and the TGI [45] was greater than 100 µM. The GI50 [46] was greater than 100 µM, the TGI [46] was greater than 100 µM and the GI50 [47] was greater than 100 µM. For the same compound, the TGI [47] was greater than 100 µM, the GI50 [48] was 47.7 µM and the TGI [48] was greater than 100 µM. The GI50 [49] was greater than 100 µM, the TGI [49] was greater than 100 µM and the GI50 [50] was 11.9 µM. The TGI [50] was greater than 100 µM, the GI50 [51] was greater than 100 µM and the TGI [51] was greater than 100 µM. The GI50 [52] was greater than 100 µM, the TGI [52] was greater than 100 µM and the GI50 [53] was greater than 100 µM. The TGI [53] was greater than 100 µM, the GI50 [54] was greater than 100 µM and the TGI [54] was greater than 100 µM. It also gave a GI50 [55] greater than 100 µM and a TGI [55] greater than 100 µM.

— PubChem BioAssay (NCI)
